Experimental data as given in patent publication US20040014215A1, “Synchronised arabidopsis cell suspensions and uses thereof” (priority 2000, published 2004).

Tests used:
[1] = system: Arabidopsis cell suspension culture MM1; experiment: Aphidicolin (4.16 μg/ml, 21.5 hrs) block/release of MM1: proportion of G1, S and G2 cells by flow cytometry; assay type: cell-based, Arabidopsis thaliana
Procedure: Arabidopsis cell suspension culture MM1 (DSM 13563) was used for synchronisation experiments. The suspension culture was maintained by sub-culturing weekly 10 ml into 200 ml of fresh MSS-medium (MS-salt, 3% sucrose, 0.5 mg/l NAA, 0.05 mg/l kinetin) which is cultured in 500 ml narrow neck Erlenmeyer flasks, of which the opening is covered with double layer of aluminium foil and loosely covered with Saran wrap and which are placed on a GYROTORY® Shaker (New Brunswick Scientific). The cell suspension culture was grown under continuous light conditions (24 hrs a day); Philips lamps were used with the specification TLD HF 50W/840; light level is in average 1300 Lux and the cell suspension culture is rotated at 120 rpm at a temperature varying between 23-25° C. To arrest cells reversibly in late G1/early S-phase, cells were blocked with aphidicolin according to Nagata et al. 1992 (with slight modifications), 40 ml of an early stationary phase cell suspension culture was subcultured into 200 ml MSS-medium, 4.16 μg/ml aphidicolin was added to block cells at the end of G1/early S-phase, and the culture was incubated at 23° C., 120 rpm in the conditions as described above for MM1, for a period of 21.5 hrs. To remove aphidicolin, cells were washed through a nylon mesh (mesh size 47 μm) with 11 MSS-medium by vigorously shaking and resuspended in MSS-medium. The cells were vigorously shaken, for a washing time of about 14 min, and then centrifuged at 150Orpm for 1 min (387 rcf) with the brake switched off.
The level of synchronicity of the Arabidopsis cell suspension culture MM1 was analysed by flow cytometry. The cell pellet from 5 ml of cell suspension culture was frozen in liquid nitrogen. To analyse the DNA content, the High Resolution Kit for Plant ploidy analysis (Type P) (Partec, Cat. No. 06-5-4004) was used, containing solution A (to release cell nuclei) and solution B (to stain DNA with DAPI). A sample of the frozen cell pellet was transferred into a small petri-dish (5 cm diameter), 150 μl of solution A was added, and the sample was carefully chopped with vertical motion of a sharp razor blade. An additional 150 μl of solution A was added, the cell suspension pipetted up and down for several time before leaving for approximately 2 min at RT. The released cell nuclei were filtered through a 50 μm nylon mesh (Partec, CellTrics 50 μm, Cat. No. 06-4-2317) and 1 ml of solution B was added to the filtrate. On average 8200 particles were counted with a flow cytometer (PASIII; Partec GmbH, Germany), using HBO lamp excitation (Partec, mercury lamp HBO 100 long life, 100W) and detection of emission using a blue filter. Cell cycle phases were analysed using Multicycle for Windows (Phoenix Flow Systems, San Diego, Calif.). Flow cytometry results are not corrected for the mitotic cells (which are not measured by this method).

[2] = system: Transgenic MM1-cycD2 cell lines; experiment: Aphidicolin block/release of transgenic MM1-cycD2 cell lines; assay type: cell-based, Arabidopsis thaliana; conditions: compared with non transgenic MM1 cell lines
Procedure: To re-establish liquid cultures of putative transgenic MM1-calli, callus tissue was transferred to a 55 mm petridish, carefully squeezed with a pipet tip and resuspended in 10 ml fresh MSS-medium (0.5 mg/l NM, 0.05 mg/l kinetin, 100 μg/ml kanamycin). The callus derived cell suspensions were incubated at 120 rpm, 23° C. under continuous light conditions in 100 ml Erlenmeyer flasks. After 10 days cultivation, 10 ml MSS-medium (0.5 mg/l NM, 0.05 mg/l kinetin) was added to the suspension cultures and left for further 7 days under conditions as above. 5 ml putative transgenic cell suspension was subcultured into 50 ml fresh MSS-medium (0.5 mg/l NM, 0.05 mg/l kinetin, 100 μg/ml kanamycin). This subculturing procedure was repeated twice at 7 days intervals in the same medium. Subsequent subculturing was carried out weekly into fresh MSS-medium (0.5 mg/l NAA, 0.05 mg/l kinetin without kanamycin selection), adjusting the transferred volume of cells to produce an inoculum of approximately the same as WT-MM1 culture. In the example of putative transgenic MM1-cycD2 cell suspensions, these were maintained by subculturing weekly 3.5 ml into 100 ml fresh MSS-medium (0.5 mg/l NAA, 0.05 mg/l kinetin) in 300 ml Erlenmeyer flasks. […] Putative transgenic calli or the suspension cultures thereof were analyzed using PCR and appropriate primers allowing to detect the cycD2 coding region. […]

C[C@@]1(CO)[C@H](O)CC[C@@]2(C)[C@H]1CC[C@H]1C[C@@H]3C[C@@]12CC[C@]3(O)CO [aphidicolin]
G1 (%) MM1 ([1]; 0 h after aphidicolin removal): 50.6%
G2 (%) MM1 ([1]; 0 h after aphidicolin removal): 19.3%
S (%) MM1 ([1]; 0 h after aphidicolin removal): 30.1%
G1 (%) MM1 ([1]; 1 h after aphidicolin removal): 23.7%
G2 (%) MM1 ([1]; 1 h after aphidicolin removal): 11.4%
S (%) MM1 ([1]; 1 h after aphidicolin removal): 64.9%
G1 (%) MM1 ([1]; 2 h after aphidicolin removal): 23.8%
G2 (%) MM1 ([1]; 2 h after aphidicolin removal): 11.4%
S (%) MM1 ([1]; 2 h after aphidicolin removal): 64.8%
G1 (%) MM1 ([1]; 3 h after aphidicolin removal): 27.2%
G2 (%) MM1 ([1]; 3 h after aphidicolin removal): 10.4%
S (%) MM1 ([1]; 3 h after aphidicolin removal): 62.5%
G1 (%) MM1 ([1]; 4 h after aphidicolin removal): 23.2%
G2 (%) MM1 ([1]; 4 h after aphidicolin removal): 44.8%
S (%) MM1 ([1]; 4 h after aphidicolin removal): 32%
G1 (%) MM1 ([1]; 5 h after aphidicolin removal): 19.9%
G2 (%) MM1 ([1]; 5 h after aphidicolin removal): 63.8%
S (%) MM1 ([1]; 5 h after aphidicolin removal): 16.3%
G1 (%) MM1 ([1]; 6 h after aphidicolin removal): 16.1%
G2 (%) MM1 ([1]; 6 h after aphidicolin removal): 83.9%
S (%) MM1 ([1]; 6 h after aphidicolin removal): 0%
G1 (%) MM1 ([1]; 7 h after aphidicolin removal): 13.8%
G2 (%) MM1 ([1]; 7 h after aphidicolin removal): 85.7%
S (%) MM1 ([1]; 7 h after aphidicolin removal): 0.5%
G1 (%) MM1 ([1]; 8 h after aphidicolin removal): 10.9%
G2 (%) MM1 ([1]; 8 h after aphidicolin removal): 88.8%
S (%) MM1 ([1]; 8 h after aphidicolin removal): 0.3%
G1 (%) MM1 ([1]; 9 h after aphidicolin removal): 11.1%
G2 (%) MM1 ([1]; 9 h after aphidicolin removal): 88.9%
S (%) MM1 ([1]; 9 h after aphidicolin removal): 0%
G1 (%) MM1 ([1]; 10 h after aphidicolin removal): 10.8%
G2 (%) MM1 ([1]; 10 h after aphidicolin removal): 89.2%
S (%) MM1 ([1]; 10 h after aphidicolin removal): 0%
G1 (%) MM1 ([1]; 11 h after aphidicolin removal): 13.4%
G2 (%) MM1 ([1]; 11 h after aphidicolin removal): 86.6%
S (%) MM1 ([1]; 11 h after aphidicolin removal): 0%
G1 (%) MM1 ([1]; 12 h after aphidicolin removal): 15.1%
G2 (%) MM1 ([1]; 12 h after aphidicolin removal): 84.1%
S (%) MM1 ([1]; 12 h after aphidicolin removal): 0.8%
G1 (%) MM1 ([1]; 13 h after aphidicolin removal): 22.9%
G2 (%) MM1 ([1]; 13 h after aphidicolin removal): 77.1%
S (%) MM1 ([1]; 13 h after aphidicolin removal): 0%
G1 (%) MM1 ([1]; 14 h after aphidicolin removal): 31.5%
G2 (%) MM1 ([1]; 14 h after aphidicolin removal): 68.5%
S (%) MM1 ([1]; 14 h after aphidicolin removal): 0%
G1 (%) MM1 ([1]; 15 h after aphidicolin removal): 38.6%
G2 (%) MM1 ([1]; 15 h after aphidicolin removal): 61.3%
S (%) MM1 ([1]; 15 h after aphidicolin removal): 0.2%
G1 (%) MM1 ([1]; 16 h after aphidicolin removal): 33.4%
G2 (%) MM1 ([1]; 16 h after aphidicolin removal): 59.6%
S (%) MM1 ([1]; 16 h after aphidicolin removal): 6.9%
G1 (%) MM1 ([1]; 17 h after aphidicolin removal): 36.3%
G2 (%) MM1 ([1]; 17 h after aphidicolin removal): 57.5%
S (%) MM1 ([1]; 17 h after aphidicolin removal): 6.2%
G1 (%) MM1 ([1]; 18 h after aphidicolin removal): 35.7%
G2 (%) MM1 ([1]; 18 h after aphidicolin removal): 56.1%
S (%) MM1 ([1]; 18 h after aphidicolin removal): 8.2%
G1 (%) MM1 ([1]; 19 h after aphidicolin removal): 38.4%
G2 (%) MM1 ([1]; 19 h after aphidicolin removal): 55.6%
S (%) MM1 ([1]; 19 h after aphidicolin removal): 6%
G1 (%) MM1 ([1]; 20 h after aphidicolin removal): 41.1%
G2 (%) MM1 ([1]; 20 h after aphidicolin removal): 48.8%
S (%) MM1 ([1]; 20 h after aphidicolin removal): 10%
synchronisation by aphidicolin block/release [2]: could be synchronized in a similar way as non transgenic MM1 cell lines
